{"source": "patent US20220088195A1", "about": "“Prevention or mitigation of T-cell bispecific antibody-related adverse effects” (Hoffmann-La Roche Inc., priority 2020, published 2022)", "assay_type_in_all_cases": "cell-based, human", "key": {"[1]": {"system": "IFN-γ, TNF-α and IL-2 release", "experiment": "Cytokine release in SKM-1 killing assay with HLA-A2 WT-1-TCB, dasatinib added after 24 hours (Luminex)", "settings": "48 hours; 100 nM dasatinib added at 24 hours", "procedure": "FIG. 3. In vitro killing assay set-up and timelines. PBMCs were co-cultured with SKM-1 target cells (E:T=10:1) and 10 nM HLA-A2 WT-1-TCB. Dasatinib (100 nM) was added after 24 hours of activation. PBMCs were labelled with CellTrace™ Violet (CTV) to allow T cell proliferation assessment.\nFIG. 5. Cytokine release. Supernatants were collected from the assay of FIG. 3 at 24h and 48h, and cytokines (IFN-γ (A), TNF-α (B) and IL-2 (C)) measured using a multiplex kit (Luminex). Mean+/−SD of 3 donors.\nTo evaluate if dasatinib could act as a rapid and potent inhibitor of activated T cells, we first stimulated PBMCs on SKM-1 tumor cells with HLA-A2 WT-1-TCB for 24 hours. We then supplemented these activated effector cells with 100 nM dasatinib (FIG. 3)."}, "SKM-1 tumor cells": {"system": "SKM-1 tumor cells", "experiment": "Two-stimulation (ON/OFF) killing assay, PBMCs + CFSE/CTV labelled SKM-1 cells + HLA-A2 WT-1-TCB, FACS", "procedure": "FIG. 8. In vitro killing assay set-up and timelines. PBMCs were co-cultured with carboxyfluorescein succinimidyl ester (CFSE) labelled SKM-1 target cells (E:T=5:1) and 10 nM HLA-A2 WT-1-TCB for 20h. Activated PBMCs were washed and restimulated on fresh, CTV labelled SKM-1 target cells (E:T=5:1) and 10 nM HLA-A2 WT-1-TCB in the presence or absence of 100 nM dasatinib.\nFIG. 10. SKM-1 target cell viability upon first stimulation with 10 nM HLA-A2 WT-1-TCB in the absence of dasatinib (left) and upon second stimulation with 10 nM HLA-A2 WT-1-TCB in the presence of 100 nM dasatinib (right). Target cell viability was measured by FACS after 44h in the assay of FIG. 8. Dead CFSE labelled SKM-1 cells were gated on positive near infrared (NIR) cells (left side). Dead CTV labelled SKM-1 cells were gated on positive NIR cells (right side).\nFIG. 11. HLA-A2 WT-1-TCB dose response for dead CFSE and CTV SKM-1 cells used for first and second stimulation in the presence and absence of dasatinib in the assay of FIG. 8. Mean+/−SEM of 3 donors, two-tailed paired t test (for each concentration), 2 tailed p values: 0.1234 (ns), 0.0332 (*), 0.0021 (**), 0.0002 (***), <0.0001 (****).\nTo assess whether dasatinib can efficiently prevent TCB-mediated target cell killing by activated T cells, we set up an in vitro killing assay with two stimulation steps, mimicking an ON/OFF switch. […]"}, "Z138 target cells": {"system": "Z138 target cells", "experiment": "Two-stimulation killing assay, PBMCs + Z138 target cells + CD20-TCB", "settings": "100 nM dasatinib upon re-stimulation; 1 nM CD20-TCB", "procedure": "FIG. 23. In vitro killing assay set-up and timelines. PBMCs were co-cultured with carboxyfluorescein succinimidyl ester (CFSE) labelled Z138 target cells (E:T=5:1) and […] 1 nM CD20-TCB for 20h. Activated PBMCs were washed and restimulated on fresh, CTV labelled Z138 target cells (E:T=5:1) and 1 nM CD20-TCB in the presence or absence of 100 nM dasatinib.\n(§1) FIG. 24. Dead Z138 cells upon first and second stimulation with 1 nM CD20-TCB in the presence and absence of 100 nM dasatinib in the assay of FIG. 23, as measured by flow cytometry. Cells were collected 20h after the first and 24 h after the second stimulation and stained with live dead NIR dye. Mean of technical replicates+/−SD. N=3 donors.\nas §1, with “25.” for “24.”, “upon” for “upon first and”, “collected” for “collected 20h after the first and”, “after” for “after the”, “Three donors D1-D3 (A-C).” for “N=3 donors.”\nA similar re-stimulation experiment was performed with a different TCB, targeting CD20 (CD20-TCB (SEQ ID NOs 28-35, 48-59), 1 nM), and the killing of Z138 target cells measured after the first and second stimulation (FIG. 23)."}}}
{"compound": "Cc1nc(Nc2ncc(C(=O)Nc3c(C)cccc3Cl)s2)cc(N2CCN(CCO)CC2)n1", "note": "[dasatinib, N-(2-chloro-6-methylphenyl)-2-[[6-[4-(2-hydroxyethyl)-1-piperazinyl]-2-methyl-4-pyrimidinyl]amino]-5-thiazole carboxamide monohydrate]", "values": [{"measurement": "release of IFN-γ, TNF-α and IL-2 from activated T cells", "setting": "[1]", "result": "rapidly prevented the release of cytokines"}, {"measurement": "CTV labelled SKM-1 cells alive upon second stimulation", "setting": "SKM-1 tumor cells; 10 nM HLA-A2 WT-1 TCB in the presence of 100 nM dasatinib", "result": 87.6, "unit": "%"}, {"measurement": "killing of CTV labelled SKM-1 cells (ON/OFF versus ON/ON)", "setting": "SKM-1 tumor cells; 100 nM dasatinib upon re-stimulation", "result": "effectively prevented the killing"}, {"measurement": "killing of CTV labelled Z138 target cells (ON/OFF versus ON/ON)", "setting": "Z138 target cells", "result": "effectively prevented the killing"}]}
